In paper PMC10715162 (Microbiology Spectrum, 2023):

Target: T1, F-ATP synthase subunit γ (in MsF1-αβγH65W) (Mycolicibacterium smegmatis, UniProt A0R201, H65W)
T1 construct: gene atpG; recombinant MsF1-αβγH65W complex; with F-ATP synthase subunits α and β
Test: tryptophan fluorescence quenching titration
Format: binding

T1 sequence (A0R201 2-307 H65W): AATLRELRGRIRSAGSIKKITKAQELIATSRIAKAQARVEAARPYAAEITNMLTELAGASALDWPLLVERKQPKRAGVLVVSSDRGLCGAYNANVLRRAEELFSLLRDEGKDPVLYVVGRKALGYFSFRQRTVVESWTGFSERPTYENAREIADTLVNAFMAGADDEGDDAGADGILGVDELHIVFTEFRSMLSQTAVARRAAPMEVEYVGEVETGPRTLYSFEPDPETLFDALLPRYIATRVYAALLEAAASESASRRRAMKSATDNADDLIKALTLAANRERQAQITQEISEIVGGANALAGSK
T1 sequence (A0R202 2-548 partner): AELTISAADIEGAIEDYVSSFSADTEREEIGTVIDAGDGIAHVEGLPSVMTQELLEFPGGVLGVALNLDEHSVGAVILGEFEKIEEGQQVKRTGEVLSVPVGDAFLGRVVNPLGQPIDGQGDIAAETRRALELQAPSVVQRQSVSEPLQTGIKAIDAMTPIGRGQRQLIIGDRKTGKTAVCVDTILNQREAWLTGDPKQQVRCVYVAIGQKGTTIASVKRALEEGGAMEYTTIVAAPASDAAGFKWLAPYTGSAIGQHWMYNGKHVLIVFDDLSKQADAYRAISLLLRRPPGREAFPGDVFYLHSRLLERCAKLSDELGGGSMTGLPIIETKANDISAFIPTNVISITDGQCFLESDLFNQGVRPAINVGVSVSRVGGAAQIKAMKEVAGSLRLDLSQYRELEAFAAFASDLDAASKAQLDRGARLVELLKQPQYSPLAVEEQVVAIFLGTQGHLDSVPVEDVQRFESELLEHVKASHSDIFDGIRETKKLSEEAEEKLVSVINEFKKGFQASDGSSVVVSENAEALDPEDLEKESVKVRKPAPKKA
T1 sequence (A0R200 2-475 partner): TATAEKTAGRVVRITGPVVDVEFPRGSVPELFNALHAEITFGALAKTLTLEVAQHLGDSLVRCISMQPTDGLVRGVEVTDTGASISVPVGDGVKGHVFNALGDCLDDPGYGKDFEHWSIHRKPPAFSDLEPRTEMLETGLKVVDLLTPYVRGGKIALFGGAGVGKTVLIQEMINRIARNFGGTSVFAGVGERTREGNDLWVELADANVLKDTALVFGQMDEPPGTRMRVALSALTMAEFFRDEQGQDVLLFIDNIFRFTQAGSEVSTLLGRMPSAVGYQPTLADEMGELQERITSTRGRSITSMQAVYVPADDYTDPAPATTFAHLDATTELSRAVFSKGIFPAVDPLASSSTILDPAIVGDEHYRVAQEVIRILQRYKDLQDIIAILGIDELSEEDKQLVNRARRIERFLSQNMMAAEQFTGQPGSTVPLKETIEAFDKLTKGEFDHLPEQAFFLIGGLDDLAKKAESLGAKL

Question: For `CCNc1cc(C)nc(Nc2ccc3nc(-c4ccc(Cl)cc4)[nH]c3c2)n1` [GaMF1.39], which Kd is on record?
Answer: 700 ± 90 nM
